Test results taken from ChEMBL document CHEMBL1667855, “Pyrrolidinone diterpenoid from Isodon excisus and inhibition of nitric oxide production in lipopolysaccharide-induced macrophage RAW264.7 cells” (Bioorg Med Chem Lett, 2011).
pIC50: −log10 of the molar value.

Key:
[1] = tested on: RAW264.7; assay: Cytotoxicity against mouse RAW264.7 cells assessed as cell viability by cell counting-based calorimetric assay
[2] = tested on: RAW264.7; assay: Inhibition of LPS-induced NO production in mouse RAW264.7 cells assessed as nitrite formation after 24 hrs; type: functional, cell-based; conditions: RAW264.7, 24 h

Row | SMILES | Activity [1] | pIC50 [2]
1 | C[C@H](O)/C=C/[C@@]12O[C@]1(C)C[C@@H](O)CC2(C)C [CORCHOIONOL A] | Non-toxic | < 4.40
2 | CC[C@H](O)/C=C/C=C/C=C/C(=O)CCCCCCCC(=O)O [CORCHORIFATTY ACID B] | Non-toxic | < 4.40
3 | C=C1C(=O)[C@@]23CC[C@@H]4[C@](C)(CO[C@@H]5CCC(=O)N5)[C@@H](OC(C)=O)CC[C@@]4(C)[C@@H]2[C@@H](O)C[C@@H]1C3 [EXCISUSIN F] | Non-toxic | 4.98
4 | C=C1[C@@H]2C[C@H](O)[C@@H]3[C@@](C2)(C[C@H](O)[C@@H]2C(C)(C)[C@@H](OC(C)=O)C[C@H](O)[C@]23C)[C@@H]1OC(C)=O [INFLEXARABDONIN D] | Non-toxic | < 4.40
5 | C=C1C(=O)[C@@]23CC(=O)[C@@H]4C(C)(C)[C@@H](OC(C)=O)C[C@H](O)[C@@]4(C)[C@@H]2[C@@H](O)C[C@@H]1C3 [INFLEXARABDONIN E] | Non-toxic | 5.42
